Experimental data reported in patent US8158380B2, “Imaging agents for protein misfolding” (New York University, priority 2007, dated 2012).

Biological target: amyloid plaques (Homo sapiens, UniProt P05067)
Assay: In vivo staining after intraperitoneal injection in PS/APP Tg mice, sections viewed under fluorescent microscope
Set-up: from tissue; host or cells: brain of PS/APP (APP/PS1) transgenic mice, as sections or in vivo
Experimental: Methods used: Five groups each of 6-month-old PS/APP Tg mice were tested (which have abundant amyloid plaques) with the compounds of the present invention. The mice received an intraperitoneal injection of compounds 23, 8 or 8F (30 μg/gram). They were sacrificed 24 hours later by ip injection of sodium pentobarbital (150 mg/kg). All animals were transcardially perfused with 20 ml of 0.1 M phosphate buffered saline (pH 7.4) with the addition of heparin followed by 80 ml of 4% formaldehyde in 0.1 M phosphate buffer. The brain was removed from the skull, cryoprotected using increasing concentrations of sucrose, and cut into serial 40-μm-thick coronal section on a freezing microtome (Leica SM2400, Nussloch, Germany). Anti-amyloid β immunohistochemistry was performed on free-floating sections, using our previously published protocols^20-23. In brief, endogenous peroxidase activity was quenched in a bath with 0.3% H2O2 for 30 min. Unspecific staining was blocked by incubation in the blocking solution provided as a part of “Mouse on mouse” kit (Vector Elite staining kit, Vector Laboratories, Burlingame, Calif.). This procedure allows for detection of antigens in murine tissue using mouse mAb avoiding substantial background. Concentration of all mAbs was 0.25 mg/ml with the total concentration of protein in a stock solution of 1 mg/ml as assessed by a Coomasie colorimetric assay. 1:2000 dilution of the stock solution was used. Primary antibodies were applied for 30 minutes followed by thorough washing and the anti-mouse IgG biotinylated secondary antibody according to the kit manufacturer instruction. For fluorescent microscopy sections were incubated with streptavidin conjugated with Cy3 (1:400; Sigma, St. Louis Mo.) whereas for light microscopy they were incubated with avidin-horseradish peroxidase complex and developed using 3,3′-diaminobenzidine kit with nickel ammonium sulfate (Vector Laboratories, Burlingame, Calif.). Following immunostaining, sections were carried on slides, air-dried, and cover-slipped. […]

[1] = AD mice, in vivo injection, sacrificed 24 hours after injection

amyloid plaques, sequence (P05067 672-713 limits assumed): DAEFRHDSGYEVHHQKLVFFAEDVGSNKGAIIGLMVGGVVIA

- ability to cross the blood brain barrier [1]: able to cross the blood brain barrier
- labeling of amyloid plaques in vivo [1]: label amyloid plaques in vivo
- effectiveness in blood-brain barrier permeability and labeling amyloid plaques in tissue sections and in vivo (AD model transgenic mice): most effective
Structure (SMILES): COc1ccc2nc(/C=C/c3ccc(-c4ccc(F)cc4)cc3)ccc2c1 [compound 8F]
